In patent US10526291B2, “Potent dual BRD4-kinase inhibitors as cancer therapeutics” (H. Lee Moffitt Cancer Center and Research Institute, Inc., priority 2014, dated 2020):
“And” between values parts separate entries of the source, which are not always exact repeats. Identical values can stand only once.

What was measured:
BRD3 = target: T1, BRD3 (Homo sapiens, UniProt Q15059); experiment: BRD3 IC50 (RB, commercial BRD panel); assay type: binding
T1 construct: purchased

JAK3 = target: T2, JAK3 (Homo sapiens, UniProt P52333); experiment: JAK3 IC50 (RB, commercial kinase panel); assay type: biochemical
T2 construct: purchased
T2 sequence (P52333 1-1124): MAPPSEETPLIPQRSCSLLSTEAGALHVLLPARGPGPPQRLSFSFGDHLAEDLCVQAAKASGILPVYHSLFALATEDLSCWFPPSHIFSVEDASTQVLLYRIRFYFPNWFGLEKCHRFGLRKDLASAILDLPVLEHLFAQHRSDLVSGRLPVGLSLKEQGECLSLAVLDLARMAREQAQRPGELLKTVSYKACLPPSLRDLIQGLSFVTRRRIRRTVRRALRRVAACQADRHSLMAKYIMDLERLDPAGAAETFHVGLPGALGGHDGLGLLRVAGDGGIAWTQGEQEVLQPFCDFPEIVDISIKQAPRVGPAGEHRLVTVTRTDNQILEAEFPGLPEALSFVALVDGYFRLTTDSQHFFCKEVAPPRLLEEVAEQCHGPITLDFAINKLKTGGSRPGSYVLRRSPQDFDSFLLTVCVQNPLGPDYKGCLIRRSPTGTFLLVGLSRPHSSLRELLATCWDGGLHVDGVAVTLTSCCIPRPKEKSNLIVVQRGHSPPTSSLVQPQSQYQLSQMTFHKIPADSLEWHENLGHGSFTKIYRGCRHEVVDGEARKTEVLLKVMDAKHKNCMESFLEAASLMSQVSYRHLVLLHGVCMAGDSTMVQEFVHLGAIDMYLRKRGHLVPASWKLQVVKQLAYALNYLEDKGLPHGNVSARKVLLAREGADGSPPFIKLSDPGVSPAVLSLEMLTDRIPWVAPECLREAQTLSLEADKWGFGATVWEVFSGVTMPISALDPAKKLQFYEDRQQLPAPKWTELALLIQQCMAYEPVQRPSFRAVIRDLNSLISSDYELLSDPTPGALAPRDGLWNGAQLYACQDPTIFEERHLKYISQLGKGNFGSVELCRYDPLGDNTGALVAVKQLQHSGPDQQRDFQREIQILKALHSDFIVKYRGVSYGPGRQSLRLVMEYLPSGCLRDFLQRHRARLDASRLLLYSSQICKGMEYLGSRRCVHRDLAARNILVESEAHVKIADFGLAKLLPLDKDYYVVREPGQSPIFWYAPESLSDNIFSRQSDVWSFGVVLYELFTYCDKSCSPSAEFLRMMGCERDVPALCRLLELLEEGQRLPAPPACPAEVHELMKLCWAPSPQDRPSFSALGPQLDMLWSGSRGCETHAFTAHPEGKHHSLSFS

HEK293 = HEK293 cell IC50; assay type: cell-based; details: Homo sapiens
MM.1S cells = experiment: MM.1S cell survival, MTT assay; assay type: cell-based; details: Homo sapiens, MM1.S, 72 h, 72 hours compound exposure
JAK1 = target: T3, JAK1 (Homo sapiens, UniProt P23458); experiment: JAK1 IC50 (RB, commercial kinase panel); assay type: biochemical
T3 construct: purchased
T3 sequence (P23458 whole entry): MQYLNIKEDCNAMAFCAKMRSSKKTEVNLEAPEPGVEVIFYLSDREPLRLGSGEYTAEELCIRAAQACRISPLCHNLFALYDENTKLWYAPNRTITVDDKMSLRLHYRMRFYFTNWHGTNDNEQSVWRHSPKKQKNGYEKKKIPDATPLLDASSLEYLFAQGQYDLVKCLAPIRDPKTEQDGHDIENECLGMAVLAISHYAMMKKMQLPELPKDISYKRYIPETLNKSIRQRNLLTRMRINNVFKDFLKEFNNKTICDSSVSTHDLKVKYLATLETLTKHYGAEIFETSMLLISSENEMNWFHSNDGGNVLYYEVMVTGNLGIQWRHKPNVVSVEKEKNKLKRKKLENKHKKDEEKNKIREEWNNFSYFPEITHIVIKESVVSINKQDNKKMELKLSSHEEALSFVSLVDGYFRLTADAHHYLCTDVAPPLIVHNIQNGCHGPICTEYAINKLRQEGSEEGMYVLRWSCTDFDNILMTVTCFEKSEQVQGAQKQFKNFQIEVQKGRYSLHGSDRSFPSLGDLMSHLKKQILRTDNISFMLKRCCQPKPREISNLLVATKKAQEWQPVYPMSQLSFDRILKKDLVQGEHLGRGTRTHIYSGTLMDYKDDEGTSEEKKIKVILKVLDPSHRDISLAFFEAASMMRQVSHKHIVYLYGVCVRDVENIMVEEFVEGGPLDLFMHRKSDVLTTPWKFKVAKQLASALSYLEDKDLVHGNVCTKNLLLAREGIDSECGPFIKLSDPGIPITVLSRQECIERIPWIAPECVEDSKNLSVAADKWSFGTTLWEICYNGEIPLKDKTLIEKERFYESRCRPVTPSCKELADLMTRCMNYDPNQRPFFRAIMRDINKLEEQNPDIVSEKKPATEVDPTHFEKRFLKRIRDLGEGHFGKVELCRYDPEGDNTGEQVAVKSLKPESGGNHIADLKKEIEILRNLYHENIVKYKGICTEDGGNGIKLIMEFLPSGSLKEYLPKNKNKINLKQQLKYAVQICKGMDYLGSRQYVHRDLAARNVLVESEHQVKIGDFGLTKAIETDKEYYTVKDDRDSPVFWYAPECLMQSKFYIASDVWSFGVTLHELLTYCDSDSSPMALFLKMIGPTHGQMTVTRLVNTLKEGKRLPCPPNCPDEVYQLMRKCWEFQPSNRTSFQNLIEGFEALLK

FLT3 = target: T4, FLT3 (Homo sapiens, UniProt P36888); experiment: FLT3 IC50 (RB, commercial kinase panel); assay type: biochemical
T4 construct: purchased
T4 sequence (P36888 27-993): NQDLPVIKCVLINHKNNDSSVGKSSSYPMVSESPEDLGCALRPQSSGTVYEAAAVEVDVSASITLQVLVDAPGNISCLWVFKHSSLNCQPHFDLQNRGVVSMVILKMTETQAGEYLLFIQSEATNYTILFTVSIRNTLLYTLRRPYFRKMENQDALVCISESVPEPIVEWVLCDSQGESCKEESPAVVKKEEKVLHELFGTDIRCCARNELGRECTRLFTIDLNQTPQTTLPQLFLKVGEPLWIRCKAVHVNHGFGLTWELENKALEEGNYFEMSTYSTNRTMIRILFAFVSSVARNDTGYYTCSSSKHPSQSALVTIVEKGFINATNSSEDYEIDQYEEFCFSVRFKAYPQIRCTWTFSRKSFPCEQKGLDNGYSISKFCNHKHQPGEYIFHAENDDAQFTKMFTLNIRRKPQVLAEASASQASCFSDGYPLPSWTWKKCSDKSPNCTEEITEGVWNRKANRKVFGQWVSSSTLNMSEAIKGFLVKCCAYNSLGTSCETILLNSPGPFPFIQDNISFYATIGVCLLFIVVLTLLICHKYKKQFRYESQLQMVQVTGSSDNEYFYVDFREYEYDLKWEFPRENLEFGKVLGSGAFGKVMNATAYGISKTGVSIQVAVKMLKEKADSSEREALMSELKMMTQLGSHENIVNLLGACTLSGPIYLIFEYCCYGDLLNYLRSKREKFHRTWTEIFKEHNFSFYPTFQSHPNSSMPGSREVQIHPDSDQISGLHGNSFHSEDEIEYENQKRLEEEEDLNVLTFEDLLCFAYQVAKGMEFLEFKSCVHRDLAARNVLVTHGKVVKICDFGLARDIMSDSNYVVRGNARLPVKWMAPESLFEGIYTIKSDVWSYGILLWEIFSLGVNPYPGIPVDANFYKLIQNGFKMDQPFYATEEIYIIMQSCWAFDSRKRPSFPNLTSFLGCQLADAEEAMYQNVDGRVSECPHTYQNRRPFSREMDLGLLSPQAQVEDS

BRD4 [1] = target: T5, BRD4 (Homo sapiens, UniProt O60885); experiment: Differential Scanning Fluorimetry (DSF), stability of BRD4 upon ligand binding; details: for ΔTm at 4 µM / DSF ΔTm (° C.): 100 μM protein, 4 μM compound and 2% DMSO; for IC50: estimated
Procedure: DSF=Differential Scanning Fluorimetry; provides a measure of the increased stability of BRD4 upon ligand binding The DSF experiment was run at 100 μM protein, 4 μM compound and 2% DMSO.

BRDT = target: T6, BRDT (Homo sapiens, UniProt Q58F21); experiment: BRDT IC50 (RB, commercial BRD panel); assay type: binding
T6 construct: purchased

SAOS-2 = SAOS-2 cell IC50; assay type: cell-based; details: Homo sapiens
UKE-1 = UKE-1 cell IC50; assay type: cell-based; details: UKE1
BRD4 [2] = target: T5, BRD4; experiment: BRD4 IC50 (RB, commercial BRD panel); assay type: binding; details: read-out: BRD4 IC50
BRD2 = target: T7, BRD2 (Homo sapiens, UniProt P25440); experiment: BRD2 IC50 (RB, commercial BRD panel); assay type: binding
T7 construct: purchased
T7 sequence (P25440 whole entry): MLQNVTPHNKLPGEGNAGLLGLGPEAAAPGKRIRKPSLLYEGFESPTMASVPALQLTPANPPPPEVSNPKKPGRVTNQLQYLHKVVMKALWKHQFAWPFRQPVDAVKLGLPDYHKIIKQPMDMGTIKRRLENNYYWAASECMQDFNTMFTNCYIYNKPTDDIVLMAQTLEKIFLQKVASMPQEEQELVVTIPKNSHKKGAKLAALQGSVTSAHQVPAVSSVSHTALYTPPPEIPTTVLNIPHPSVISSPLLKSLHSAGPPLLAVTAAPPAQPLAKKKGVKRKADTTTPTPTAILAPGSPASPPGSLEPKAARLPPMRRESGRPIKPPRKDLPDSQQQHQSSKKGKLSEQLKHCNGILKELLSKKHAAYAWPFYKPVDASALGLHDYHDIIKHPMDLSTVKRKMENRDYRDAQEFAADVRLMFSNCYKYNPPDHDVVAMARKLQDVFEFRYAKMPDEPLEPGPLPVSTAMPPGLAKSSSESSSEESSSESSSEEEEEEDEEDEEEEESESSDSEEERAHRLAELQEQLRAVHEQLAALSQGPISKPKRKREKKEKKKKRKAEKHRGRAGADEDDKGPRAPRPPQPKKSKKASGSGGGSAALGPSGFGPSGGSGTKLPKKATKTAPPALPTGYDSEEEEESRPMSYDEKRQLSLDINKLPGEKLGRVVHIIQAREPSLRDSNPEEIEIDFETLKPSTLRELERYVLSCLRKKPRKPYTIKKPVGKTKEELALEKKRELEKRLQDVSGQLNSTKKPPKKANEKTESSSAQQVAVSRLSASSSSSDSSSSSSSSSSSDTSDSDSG

c-Myc in MM.1S cells = details: literature; cited from earlier work
MV4-11 AML cells = experiment: MV-4-11 cell IC50 (antiproliferative activity); assay type: cell-based; details: Homo sapiens
Procedure: Cellular activity of promising compounds is assessed using MM.1S and MV4-11 AML cells using c-Myc levels as biomarker (6-12 hr treatment) and antiproliferative activity (48-72 hr treatment) as described (Ciceri et al., Dual kinase-bromodomain inhibitors for rationally designed polypharmacology. Nat Chem Biol 2014).

NCI-H2052 = NCI-H2052 cell IC50; assay type: cell-based; details: Homo sapiens
BRD4-1 = target: T8, BRD4-1 (Homo sapiens, UniProt O60885); experiment: BRD4-1 IC50; assay type: binding
T8 construct: BRD4-1; purchased

BRDT-1 = target: T9, BRDT-1 (Homo sapiens, UniProt Q58F21); experiment: BRDT-1 IC50; assay type: binding
T9 construct: BRDT-1; purchased

T1 sequence (Q15059 whole entry): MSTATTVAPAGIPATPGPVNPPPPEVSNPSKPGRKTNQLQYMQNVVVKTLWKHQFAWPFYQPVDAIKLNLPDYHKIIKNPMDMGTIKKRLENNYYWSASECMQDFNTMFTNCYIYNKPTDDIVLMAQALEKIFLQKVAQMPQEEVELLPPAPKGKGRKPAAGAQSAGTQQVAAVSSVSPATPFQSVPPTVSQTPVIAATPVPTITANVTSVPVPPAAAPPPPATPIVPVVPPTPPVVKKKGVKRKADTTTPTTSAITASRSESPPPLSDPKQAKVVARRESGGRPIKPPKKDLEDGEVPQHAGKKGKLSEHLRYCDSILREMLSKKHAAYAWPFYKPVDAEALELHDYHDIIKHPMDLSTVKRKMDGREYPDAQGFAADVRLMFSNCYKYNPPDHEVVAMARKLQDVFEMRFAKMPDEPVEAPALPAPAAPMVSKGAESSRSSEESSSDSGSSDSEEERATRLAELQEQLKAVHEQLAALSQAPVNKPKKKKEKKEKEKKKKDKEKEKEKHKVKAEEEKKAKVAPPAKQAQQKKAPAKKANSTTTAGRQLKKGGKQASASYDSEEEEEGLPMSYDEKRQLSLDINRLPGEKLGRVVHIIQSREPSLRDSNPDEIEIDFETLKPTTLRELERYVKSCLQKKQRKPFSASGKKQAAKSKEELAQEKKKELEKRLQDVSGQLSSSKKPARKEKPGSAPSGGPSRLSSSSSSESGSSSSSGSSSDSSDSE

Compound | IC50 (HEK293) [nM] | IC50 (MM.1S cells) [nM] | ΔTm at 4 µM (BRD4 [1]) [°C] | IC50 (BRD4 [1]) | IC50 (UKE-1) [nM] | downregulation of c-Myc (c-Myc in MM.1S cells) | further results
Cc1cnc(Nc2ccc(N3CCN(C)CC3)cc2)nc1Nc1cccc(NS(=O)(=O)C(C)(C)C)c1 | 1200 | 400 | 8.54 ± 0.088 | 25 nM | 260 | – | IC50 (BRD3): 12.5 nM; IC50 (JAK3): 91.4 nM; IC50 (JAK1): 4.58 nM; IC50 (FLT3): 0.917 nM; IC50 (BRDT): 29.1 nM; IC50 (SAOS-2): 184 nM; IC50 (BRD4 [2]): 10.2 nM; IC50 (BRD2): 625 nM
CC[C@@H]1C(=O)N(C)c2cnc(Nc3ccc(C(=O)NC4CCN(C)CC4)cc3OC)nc2N1C1CCCC1 [BI2536] | – | – | – | – | – | strong downregulation of c-Myc | –
Cc1cnc(Nc2ccc(C(=O)NC3CCN(C)CC3)cc2)nc1Nc1ccc(Cl)c(NS(=O)(=O)C(C)(C)C)c1 | – | – | 11 ± 0.12 | 6.1 nM and 4.6 nM | 1600 | – | DSF ΔTm (° C.) (BRD4 [1]): 11 ± 0.12 11 ± 0.12 °C; IC50 (MV4-11 AML cells): 71 nM
CN1CCN(c2ccc(Nc3ncc(Cl)c(Nc4cccc(S(=O)(=O)NC5CC5)c4)n3)cc2)CC1 | 1800 | 880 | 6.4 ± 0.15 | 160 nM | – | – | –
Cc1cnc(Nc2ccc(C(=O)NC3CCN(C)CC3)c(F)c2)nc1Nc1ccc(Cl)c(NS(=O)(=O)C(C)(C)C)c1 | – | – | 12.5 ± 0.165 | 1.3 nM | 220 | – | IC50 (NCI-H2052): > 10000 nM; IC50 (BRD4-1): 10 nM; IC50 (BRDT-1): 23 nM; IC50 (MV4-11 AML cells): 38 nM
COc1cc(Nc2nc(Nc3ccc(N4CCN(C)CC4)cc3)ncc2Cl)ccc1Cl | 1400 | 450 | 4.8 ± 0.058 | 540 nM | – | – | –
Cc1cnc(Nc2ccc(N3CCN(C)CC3)cc2)nc1Nc1cccc(S(=O)(=O)NC(C)(C)C)c1 [TG101209] | – | – | – | – | – | strong downregulation of c-Myc | –
Cc1cnc(Nc2ccc(N3CCN(C)CC3)cc2)nc1Nc1cccc(S(=O)(=O)NC(C)(C)C)c1 [drawing 27] | – | – | 6.83 ± 0.129 | – | – | – | DSF ΔTm (° C.) (BRD4 [1]): 7.55 ± 0.154 °C; IC50 (SAOS-2): 425 nM
Cc1cnc(Nc2ccc(OCCN3CCCC3)cc2)nc1Nc1cccc(S(=O)(=O)NC(C)(C)C)c1 [TG101348] | – | – | – | – | – | strong downregulation of c-Myc | –
Cc1cnc(Nc2ccc(N3CCN(C)CC3)cc2)nc1Nc1cccc(NS(=O)(=O)C2CC2)c1 | 1000 | 600 | 6.7 ± 0.11 | 130 nM | – | – | –
